Results on one compound are retold here after patent US9394520B2, “Expansion of hematopoietic stem cells” (University of Rochester, priority 2006, dated 2016).

One data set relates to Jagged1. Briefly: Jagged1 protein by Western blot in UMR106 cells. The format is cell-based. Particulars: UMR106 cells after treatment with PGE2, Western blot, antibody C-20. As to the method: UMR 106 cells were serum starved for 24 hours and then treated with a single dose of vehicle (controls) or PGE2 at a concentration of 10^-7 M. RNA was collected from both control and treated samples to assess the fold change in Jagged1 mRNA by real time RT-PCR analysis corrected for by beta-actin. FIG. 1B is a Western blot showing total protein that was collected from both control and treated samples exposed to Jagged1 antibody, C20. Positive control (+ctr) was provided by HS27a cells, a human stromal cell line with high levels of Jagged1 protein, while HS5 cells from a human stromal cell line with minimal Jagged1 levels were used as a negative control. FIG. 2A is a graph showing that inhibition of PKA blocks PGE2-dependent increase of Jagged1 in UMR 106 cells. UMR106 cells were serum starved for 24 hours. They were pre-treated with H89 for 30 minutes followed by a single dose of PGE2 at 10^-7 M or vehicle. RNA was collected from both control and treated samples to assess the fold change in Jagged1 RNA by real time RT-PCR analysis corrected for by β-actin. […] UMR106 cells were serum starved for 24 hours. […] Total RNA was extracted and analyzed by real time RT-PCR, normalizing for β-actin expression and t=0. Total protein was analyzed by Western blots performed using the […] system (Invitrogen, Carlsbad, Calif.). […]

Data set [1] has as its system intermediate progenitors of hematopoietic stem cells. Briefly: Colony forming unit-cell (CFU-C) assay of bone marrow mononuclear cells from treated mice. Format: in vivo. The text has this: (§1) FIG. 8 is a graph showing that intermediate progenitors of hematopoietic stem cells are not increased by PGE2 treatment. Therefore, PGE2 specifically increases HSCs. The bone marrow mononuclear cells from mice treated with vehicle and PGE2 using colony forming unit-cell (CF-C) activity in vitro. […] Peripheral white blood cell and hematocrit levels were not changed in PGE2 vs. vehicle treated mice at 16 days (WBC counts: vehicle averaged 5.75±0.20×10^3/μl; PGE2 averaged 4.72±0.61×10^3/μl) (Hematocrit: vehicle averaged 42±1%; PGE2 averaged 43±2%) (n=6 for each treatment group).
(§2) FIG. 8 is a graph showing that intermediate progenitors of hematopoietic stem cells are not increased by PGE2 treatment. Therefore, PGE2 specifically increases HSCs. The bone marrow mononuclear cells from mice were treated with vehicle and PGE2 to determine if there was an increase in intermediate progenitors in response to PGE2 using the colony forming unit-cell (CFU-C) assay. […] In addition, peripheral white blood cell and hematocrit levels were not changed in PGE2 vs. vehicle treated mice at 16 days (WBC counts: vehicle averaged 5.75±0.20×10^3/μl; PGE2 averaged 4.72±0.61×10^3/μl) (Hematocrit: vehicle averaged 42±1%; PGE2 averaged 43±2%) (n=6 for each treatment group).
The opposite limb of the same mice was used for flow cytometric analysis, in vitro progenitor CFU-C assays and competitive repopulation. […]

Data set [2] deals with lethally irradiated recipient mice. Briefly: Survival of lethally irradiated recipients of suboptimal BMMC from treated donors. Format: in vivo. From the text:
FIGS. 14A and 14B are graphs showing survival analysis by the method of Kaplan-Meyer in lethally irradiated recipients of suboptimal BMMC (1.5×10^5 donor BMMC (A) and 0.75×10^5 donor BMMC (B)) from vehicle or PGE2-treated donors.
Moreover, since ST-HSC confer radioprotection, PGE2-dependent ST-HSC expansion would be expected to improve survival of lethally irradiated recipients receiving limiting numbers of BMMC from PGE2 vs vehicle-treated mice. To test this hypothesis, adult C57Bl/6 donor mice were treated with PGE2 or vehicle prior to bone marrow harvest. Recipient mice received myeloablative doses of radiation and suboptimal BMMC numbers (FIGS. 14A and 14B).

Details of data set [3]: species or system mice. The note with it: mouse, in vivo.
Description: as §1, §2

Another data set deals with ST-HSC / LT-HSC activity. Description: Colony Forming Unit-Spleen (CFU-S) assay. The format is in vivo, mice. From the text: FIG. 13A show CFU-S images of selected spleens after fixation. FIGS. 13B and 13C are graphs showing quantification of colonies per spleen at days 8 (FIG. 13B) and 10 (FIG. 13C) after transplantation.
ST vs LT-HSC activity can also be quantified by the in vivo clonogenic Colony Forming Unit-Spleen (CFU-S) assay, where day 8 CFU-S is closely associated with ST-HSC, while day 10-12 CFU-S are associated with LT-HSC activity.

The test system of the next data set is HSC subsets. Description: LSK subset analysis based on Flt3 and Thy1.1 expression. The format is in vivo, mice. As to the method: FIGS. 12A and 12B are representative plots of flow cytometric strategy of LSK subset from bone marrow of individual vehicle and PGE2-treated mice, numbers in the quadrant represent percentage of LSK.
To further confirm this targeted PGE2 effect, LSK subset analysis based on Flt3 and Thy1.1 expression was performed. […] (n=4 per treatment group).

On to `CCCCC[C@H](O)/C=C/[C@H]1[C@H](O)CC(=O)[C@@H]1C/C=C\CCCC(=O)O` [PGE2, Prostaglandin E2], for which, in the data set on Jagged1, the Jagged1 protein result is recorded as “increased”. In addition, the CFU-C frequency result was “No evidence of PGE2 effects” in data set [1] (BMMC from C57Bl/6 mice treated 16 days, Example 2) and “did not increase” in data set [1] (BMMC from treated mice, Example 1). Moreover, the “survival 30 days after transplantation” value came to 53% in data set [2] (75,000 donor cells from treated donors, p=0.0173) and 80% in data set [2] (150,000 donor cells from treated donors, p=0.0018). Further, the Hematocrit in data set [3] came out at 43±2%. Further, the peripheral platelets entry in data set [3] is “not changed”. Besides, in the data set with ST-HSC / LT-HSC activity (day 8, BMMC from treated mice, n=4, p=0.0053), the CFU-Sd8 is given as 10.5 CFU-S per 60,000 BMMC. Moreover, the CFU-Sd10 with ST-HSC / LT-HSC activity (day 10, BMMC from treated mice, n=6, p=0.4950) is on record as 12.5 CFU-S per 60,000 BMMC. Also, the “MPP (Flt3+Thy1.1- LSK) quantification from bone marrow” value with HSC subsets (n=4, p 0.007 vs vehicle) stood at 0.0305 ± 0.002398. For the same compound, in the data set on HSC subsets (n=4, p 0.0307 vs vehicle), the “ST-HSC (Flt3+Thy1.1int LSK) quantification from bone marrow” value is on record as 0.02725 ± 0.003568. The “LT-HSC (Flt3−Thy1.1int LSK) quantification from bone marrow” value in the data set with HSC subsets (n=4, p 0.1069 (NS) vs vehicle) turned out to be 0.01264 ± 0.002233.
